Patent publication US7879852B2, “Melanocortin receptor agonists” (LG Life Sciences Ltd., priority 2006, dated 2011)
pEC50: −log10 of the molar value.

Biological target: T1, human melanocortin receptor 4 (MC4R) (Homo sapiens, UniProt P32245)
T1 construct: expressed in transfected cells; grown with 200 ug/ml Geneticin
Assay: Luciferase assay
Type: cell-based
Conditions: agonistic activity at MC4R (Table 18); patent does not state whether luciferase or cAMP assay
Procedure: Cell lines expressing human melanocortin receptor 4 (MC4R) were dissociated from tissue culture dishes by rinsing with Ca^++, Mg^++ free DPBS, treated with 1× Trypsin/EDTA solution for 1 min at 37° C., and resuspended with DMRM (GIBCO-BRL) supplemented with 10% FBS. The cells were counted and diluted with DMEM supplemented with 10% FBS and 200 ug/ml of Geneticin to […]. 90 ul of cell suspension was plated onto each well of 96-well black and clear bottom culture plates (Costar). After the incubation for 24 h in the atmosphere of 6% CO2 at 37° C., 10 ul of NDP-MSH and test compounds diluted in DMSO were added to each well. The final DMSO concentration was 1%. After 4 h of incubation in the atmosphere of 6% CO2 at 37° C., 50 ul of Bright-Glo (Promega) was added to each well. Luciferase activity was measured by using L-Max luminometer (Molecular Device). The amount of luciferase activity induced by treatment with NDP-MSH was defined as 100% to obtain the relative efficacy of test compounds. The EC0.5 MSH was defined as the concentration of test compounds that results in half maximal activity of NDP-MSH. The EC50 was defined as the concentration of test compound that results in half maximal activity of its own.

T1 sequence (P32245 whole entry): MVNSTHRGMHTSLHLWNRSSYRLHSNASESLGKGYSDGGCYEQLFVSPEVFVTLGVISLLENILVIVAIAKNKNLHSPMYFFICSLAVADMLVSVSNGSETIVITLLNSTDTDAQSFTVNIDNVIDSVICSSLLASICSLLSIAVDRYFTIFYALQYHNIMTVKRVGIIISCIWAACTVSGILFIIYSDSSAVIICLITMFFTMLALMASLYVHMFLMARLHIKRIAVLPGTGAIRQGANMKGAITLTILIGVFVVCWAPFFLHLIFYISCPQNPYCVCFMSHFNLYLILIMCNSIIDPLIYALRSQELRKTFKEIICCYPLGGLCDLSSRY

| SMILES | pEC50 |
| --- | --- |
| CC1(C)CCC(N(C(=O)C(C)(C)C)[C@H]2C[C@@H](CO)N(C(=O)[C@@H]3CN(C(C)(C)C)C[C@H]3c3ccc(Cl)cc3)C2)CC1 [Example B4, N-[(3S,5S)-1-{[(3S,4R)-1-tert-butyl-4-(4-chlorophenyl)pyrrolidine-3-yl]carbonyl}-5-(hydroxymethyl)pyrrolidine-3-yl]-N-(4,4-dimethylcyclohexyl)-2,2-dimethylpropaneamide] | 7.80 |
| CC1CCC(N(C(=O)C(C)(C)C)C2CC(C(N)=S)N(C(=O)C3CN(C(C)(C)C)CC3c3ccc(F)cc3F)C2)CC1 (centres unmarked) [Example B28] | 7.85 |
| CC(C)C(=O)N(C1CCC(C)(C)CC1)C1CC(C=NO)N(C(=O)C2CN(C(C)(C)C)CC2c2ccc(F)cc2F)C1 (centres unmarked) [Example B33] | 7.19 |
| CC1(C)CCC(N(C(=O)C(C)(C)C(N)=O)[C@H]2CCN(C(=O)C3CN(C(C)(C)C)C[C@H]3c3ccc(Cl)cc3)C2)CC1 (stereo partly drawn) [Example C1, N-[(3S)-1-{[(3S,4R)-1-tert-butyl-4-(4-chlorophenyl)pyrrolidine-3-yl]carbonyl}pyrrolidine-3-yl]-N-(4,4-dimethylcyclohexyl)-2,2-dimethylmaloneamide] | 7.42 |
| COCC(C)(C)C(=O)N(C1CCC(C)(C)CC1)[C@H]1CCN(C(=O)[C@@H]2CN(C(C)(C)C)C[C@H]2c2ccc(Cl)cc2)C1 [Example C2, N-[(3S)-1-{[(3S,4R)-1-tert-butyl-4-(4-chlorophenyl)pyrrolidine-3-yl]carbonyl}pyrrolidine-3-yl]-N-(4,4-dimethylcyclohexyl)-3-methoxy-2,2-dimethylpropaneamide] | 7.96 |
| CC1(C)CCC(N(C(=O)C(C)(C)/C=N/O)[C@H]2CCN(C(=O)[C@@H]3CN(C(C)(C)C)C[C@H]3c3ccc(Cl)cc3)C2)CC1 [Example C3, (3E)-N-[(3S)-1-{[(3S,4R)-1-tert-butyl-4-(4-chlorophenyl)pyrrolidine-3-yl]carbonyl}pyrrolidine-3-yl]-N-(4,4-dimethylcyclohexyl)-3-(hydroxyimino)-2,2-dimethylpropaneamide] | 7.82 |
| CC(=O)C(C)(C)C(=O)N(C1CCC(C)(C)CC1)[C@H]1CCN(C(=O)[C@@H]2CN(C(C)(C)C)C[C@H]2c2ccc(Cl)cc2)C1 [Example C5, N-[(3S)-1-{[(3S,4R)-1-tertbutyl-4-(4-chlorophenyl)pyrrolidine-3-yl]carbonyl}pyrrolidine-3-yl]-N-(4,4-dimethylcyclohexyl)-2,2-dimethyl-3-oxobutaneamide] | 8.22 |
| CCN(C)C(=O)[C@@H]1C[C@H](N(C(=O)C(C)(C)COC)C2CCC(F)(F)CC2)CN1C(=O)C1CN(C(C)(C)C)C[C@H]1c1ccc(Cl)cc1 (stereo partly drawn) [Example C9, N-[(3S)-1-{[(3S,4R)-1-tert-butyl-4-(4-chlorophenyl)pyrrolidine-3-yl]carbonyl}pyrrolidine-3-yl]-N-[(4,4-difluorocyclohexyl)(3-methoxy-2,2-dimethylpropanoyl)amino]-N-ethyl-N-methyl-L-prolineamide] | 7.39 |
| CN(C)C(=O)[C@@H]1C[C@H](N(C(=O)C(C)(C)C(N)=O)C2CCC(C)(C)CC2)CN1C(=O)C1CN(C(C)(C)C)C[C@H]1c1ccc(Cl)cc1 (stereo partly drawn) [Example C12, N-{(3S,5S)-1-{[(3S,4R)-1-tert-butyl-4-(4-chlorophenyl)pyrrolidine-3-yl]carbonyl}-5-[(dimethylamino)carbonyl]pyrrolidine-3-yl}-N-(4,4-dimethylcyclohexyl)-2,2-dimethylmaloneamide] | 7.02 |
| CCN(C)C(=O)[C@@H]1C[C@H](N(C(=O)C(C)(C)CS)C2CCC(C)(C)CC2)CN1C(=O)[C@@H]1CN(C(C)(C)C)C[C@H]1c1ccc(F)cc1F [Example C14, (4S)-1-{[(3S,4R)-1-tert-butyl-4-(2,4-difluorophenyl)pyrrolidine-3-yl]carbonyl}-4-[(4,4-dimethylcyclohexyl)(3-mercapto-2,2-dimethylpropanoyl)amino]-N-ethyl-N-methyl-L-prolineamide] | 7.18 |
| COCC(C)(C)C(=O)N(C1CCC(F)(F)CC1)[C@H]1C[C@@H](C(=O)N(C)C)N(C(=O)[C@@H]2CN(C(C)(C)C)C[C@H]2c2ccc(Cl)cc2)C1 [Example C24] | 7.66 |
